Where a SMILES comes first, the peptide text is derived from it. [ ]: non-standard residue; d: D form. dTrp(2-Me) = Cc1[nH]c2ccccc2c1C[C@@H](N)C(=O)O
Experiments:
[1] = system: HIV-1-infected macrophages; assay: CD36 mAb blocking assay: p24 in supernatant and cell lysate of HIV-1-infected macrophages (ELISA); conditions: overnight exposure, comparison with CD36 ligands (FIG. 15E)
CD36 [2] = conditions: cited from earlier work
[3] = target: CD36 (human), on primary macrophages or HeLa-CD36 cells (human) (UniProt P16671); assay: cell-based or functional assay
[4] = system: HIV-1-infected primary macrophages; assay: p24 Gag release by HIV-1-infected macrophages after siRNA transfection (ELISA); conditions: Tsg101 knock down (positive control) compared with CD36 silencing
CD36 [5] = conditions: binding site competition; cited from earlier work

For “type-I Collagen: endogenous ligand of CD36, purchased from Sigma”, the “release of p24” value [1] was “none of the two ligands reduced”.

For “Trombospondin-1: endogenous ligand of CD36”, the “release of p24” value [1] was “none of the two ligands reduced”.

In the case of `Cc1c(C)c2c(c(C)c1O)CC[C@@](C)(CCC[C@H](C)CCC[C@H](C)CCCC(C)C)O2` [α-tocopherol], the “uptake of oxLDLs into macrophages” value (CD36 [2]) is listed as “reduce” and the “expression of CD36” value (CD36 [2]; macrophages) is listed as “reduce”.

For “CD36-specific mAb clone CLB-IVC7 (Immunotools) (antibody)”, the p24 release in the culture supernatant of HIV-1-infected macrophages (ELISA), titration of the mAb [3] was 32 ng/mL.

In the case of “CAGUUUAUCAUUCAAGUGUAA (listed as RNA, chemistry not given here) [Tsg101]”, the “extent of the inhibition of p24 release” value [4] was “similar”.

In the case of `Cc1[nH]c2ccccc2c1C[C@@H](NC(=O)[C@@H](N)Cc1cnc[nH]1)C(=O)N[C@@H](C)C(=O)N[C@@H](Cc1c[nH]c2ccccc12)C(=O)N[C@H](Cc1ccccc1)C(=O)N[C@@H](CCCCN)C(N)=O` [Hexarelin, hexarelin] (H-H[dTrp(2-Me)]AW[dF]K-NH2), the “CD36-mediated uptake of oxLDLs” value (CD36 [5]) is given as “blocks”.
